This passage reports IC50 results from patent publication US20250206722A1, “SMALL MOLECULE INHIBITORS OF TEA DOMAIN FAMILY MEMBERS” (The Scripps Research Institute, priority 2022, published 2025).

What all share (type): cell-based
In one test the test system is NCI-H226 cells. Description: NCI-H226 proliferation assay (in house). As to conditions: Homo sapiens, 120 h, 5 days, Cell TiterGlo, 20-point 1:2 dilution from 20 μM. The method in brief:
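Viability by CellTiter-Glo luminescence after 5-day compound exposure at 37 °C, 5% CO2. Compounds added 24 h post-seeding (500 cells/well, RPMI 1640 with 10% FBS) as 20-point, 2-fold series from 20 μM final, triplicate wells.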
(Cellular ATP, detected with luciferase, serves as a proxy for viable cell number.)

The subject of test [1] is transcriptional activity of TEADs. Description: TEAD reporter assay (MCF7 TEAD-LUC reporter cells). As to conditions: Homo sapiens, 24 hours, BrightGlo luminescence. The method in brief: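 Luminescence (BrightGlo) was read after 24 h of compound treatment at 37 °C, 5 % CO2. Cells had been seeded at 5,000 per well in DMEM with 10 % FBS and insulin and rested 24 h first. Dosing used 20 points, 1:2 dilution from 20 μM final, triplicates.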
Background: A reporter such as luciferase makes a cellular process visible.

A further test has as its system IMR32 cells. Description: IMR32 cytotoxicity assay. The following applies: Homo sapiens, IMR-32, 72 h, 3 days, Cell TiterGlo. On the procedure: IMR32 cells were obtained from American Type Culture Collection (ATCC, CCL-127) and cultured in DMEM (Corning, 10-013-CV) supplemented with 10% fetal bovine serum (Gibco, 10438-026) and 1% penicillin-streptomycin (Gibco, 15070063). Cells were trypsinized, resuspended in growth medium, and diluted to a concentrated of 20,000 cells/mL. 1,000 cells, 50 μL of cell suspension, per well were then plated in a white 384-well plate (Corning) and incubated at 37° C., 5% CO2. After 24 hours incubation, 100 nL of test compounds in DMSO, 20-point 1:2 dilution starting from 20 μM (final concentration) in triplicate, were transferred to each well using an Agilent Bravo instrument outfitted with a pintool head. Cells were incubated at 37° C., 5% CO2 for 3 days followed by the addition of 30 μL of Cell TiterGlo (Promega; diluted 1:6 in water) to each well and luminescence values recorded using an EnVision plate reader. […]

For `N#CCC(=O)N1CCN(c2nccnc2Nc2ccc(C(F)(F)F)cc2)CC1` [Example 171, 3-oxo-3-(4-(3-((4-(trifluoromethyl)phenyl)amino)pyrazin-2-yl)piperazin-1-yl)propanenitrile], the half-inhibitory concentration (IC50) with NCI-H226 cells was 5.25 µM; in test [1] it was 2220 nM; in the test on IMR32 cells it was greater than 20000 nM.
Taken in the same sequence, the figures for `N#CCN1CCN(c2nccnc2Nc2ccc(C(F)(F)F)cc2)CC1` [Example 175, 2-(4-(3-((4-(trifluoromethyl)phenyl)amino)pyrazin-2-yl)piperazin-1-yl)acetonitrile] were greater than 10 µM, 833 nM and greater than 20000 nM.
Taken in the same sequence, the figures for `C=CC(=O)N1CCN(c2nccnc2Nc2ccc(C(F)(F)F)cc2)C[C@@H]1C` [Example 14, (S)-1-(2-methyl-4-(3-((4-(trifluoromethyl)phenyl)amino)pyrazin-2-yl)piperazin-1-yl)prop-2-en-1-one] were 0.0246 µM, 2.94 nM and greater than 10000 nM.
The corresponding values for `C=CC(=O)NCCOc1nccnc1Nc1ccc(C(F)(F)F)cc1` [Example 192, N-(2-((3-((4-(trifluoromethyl)phenyl)amino)pyrazin-2-yl)oxy)ethyl)acrylamide] are 1.78 µM, 17.9 nM and greater than 20000 nM.
`C=CC(=O)N[C@H]1C[C@@H](Nc2nccnc2Nc2ccc(C(F)(F)F)cc2)C1` [Example 5, N-((ls,3s)-3-((3-((4-(trifluoromethyl)phenyl)amino)pyrazin-2-yl)amino)cyclobutyl) acrylamide]: the values for the IC50 (in the test on NCI-H226 cells; in test [1]; in the test on IMR32 cells) were 13.7 µM, 408 nM and greater than 20000 nM, respectively.
The corresponding values for `C=CC(=O)N1CCN(c2cccnc2Nc2ccc(C(F)(F)F)cc2)CC1` [Example 143, 1-[4-(2-{[4-(trifluoromethyl)phenyl]amino}pyridin-3-yl)piperazin-1-yl]prop-2-en-1-one] are 0.017 µM, 5 nM and 20000 nM.
Regarding `CC(=O)N1CCN(c2nccnc2Nc2ccc(C(F)(F)F)cc2)CC1` [Example 168, 1-(4-(3-((4-(trifluoromethyl)phenyl)amino)pyrazin-2-yl)piperazin-1-yl)ethan-1-one], the concentration for half-maximal inhibition (IC50) with NCI-H226 cells was greater than 10 µM; in test [1], 487 nM; in the test with IMR32 cells, greater than 20000 nM.
Taken in the same sequence, the figures for `C=CC(=O)N1CCN(c2nccnc2Nc2ccc(C(F)(F)F)cc2)C(C)C1` (stereo not drawn) [Example 24, 1-(3-methyl-4-(3-((4-(trifluoromethyl)phenyl)amino)pyrazin-2-yl)piperazin-1-yl)prop-2-en-1-one] were 0.0199 µM, 41 nM and 2500 nM.
The corresponding values for `C=CC(=O)N1CCN(c2nccnc2N2CC(c3ccccc3)C2)CC1` [Example 106, 1-(4-(3-(3-phenylazetidin-1-yl)pyrazin-2-yl)piperazin-1-yl)prop-2-en-1-one] are 20 µM, 7 nM and greater than 20000 nM.
Taken in the same sequence, the figures for `C=CC(=O)N1CCN(c2nccnc2Oc2ccc(C(F)(F)F)cc2)CC1` [Example 69, 1-(4-(3-(4-(trifluoromethyl)phenoxy)pyrazin-2-yl)piperazin-1-yl)prop-2-en-1-one] were 0.0115 µM, 0.9 nM and greater than 20000 nM.
Take `O=C(CCl)N1CCN(c2nccnc2Nc2ccc(C(F)(F)F)cc2)CC1` [Example 170, 2-chloro-1-(4-(3-((4-(trifluoromethyl)phenyl)amino)pyrazin-2-yl)piperazin-1-yl)ethan-1-one]: the values for the IC50 (in the test with NCI-H226 cells; in test [1]; in the test with IMR32 cells) were 0.173 µM, 267 nM and 760 nM, respectively.
Taken in the same sequence, the figures for `C=C(CN1CCCC1)C(=O)N1CCN(c2nccnc2Nc2ccc(C(F)(F)F)cc2)CC1` [Example 189, 2-(pyrrolidin-1-ylmethyl)-1-(4-(3-((4-(trifluoromethyl)phenyl)amino)pyrazin-2-yl)piperazin-1-yl)prop-2-en-1-one] were 5.36 µM, 2120 nM and 9300 nM.
The corresponding values for `C=CC(=O)N1CCN(c2ccnc(Nc3ccc(C(F)(F)F)cc3)n2)CC1` [Example 123, 1-[4-(2-{[4-(trifluoromethyl)phenyl]amino}pyrimidin-4-yl)piperazin-1-yl]prop-2-en-1-one] are 0.91 µM, 279 nM and 4870 nM.
The corresponding values for `C=CC(=O)NC1CCN(c2nccnc2Nc2ccc(C(F)(F)F)cc2)CC1` [Example 9, N-(1-(3-((4-(trifluoromethyl)phenyl)amino)pyrazin-2-yl)piperidin-4-yl)acrylamide] are greater than 10 µM, 29.6 nM and 10000 nM.
On to `C=CC(=O)N(C)CCOc1nccnc1Nc1ccc(C(F)(F)F)cc1` [Example 191, N-methyl-N-(2-((3-((4-(trifluoromethyl)phenyl)amino)pyrazin-2-yl)oxy)ethyl)acrylamide], for which the values for the concentration for half-maximal inhibition (IC50) (with NCI-H226 cells; in test [1]; with IMR32 cells) were 0.047 µM, 4.3 nM and 10000 nM, respectively.
Taken in the same sequence, the figures for `C=CC(=O)N1[C@@H]2CC[C@H]1CN(c1nccnc1Nc1ccc(C(F)(F)F)cc1)C2` [Example 12, 1-((1R,5S)-3-(3-((4-(trifluoromethyl)phenyl)amino)pyrazin-2-yl)-3,8-diazabicyclo[3.2.1]octan-8-yl)prop-2-en-1-one] were 1.16 µM, 491 nM and 10000 nM.
Taken in the same sequence, the figures for `C=CC(=O)N1CCN(c2nccnc2-c2cccc(C(F)(F)F)c2)CC1` [Example 29, 1-(4-(3-(3-(trifluoromethyl)phenyl)pyrazin-2-yl)piperazin-1-yl)prop-2-en-1-one] were greater than 20 µM, greater than 20000 nM and greater than 20000 nM.
In the case of `C=CC(=O)N1CCN(c2nccnc2Nc2ccc(C(F)(F)F)cc2)C[C@@H]1CO` [Example 15, (R)-1-(2-(hydroxymethyl)-4-(3-((4-(trifluoromethyl)phenyl)amino)pyrazin-2-yl)piperazin-1-yl)prop-2-en-1-one], the IC50 was greater than 20 µM with NCI-H226 cells, 5000 nM in test [1] and 10000 nM in the test on IMR32 cells.
Taken in the same sequence, the figures for `C=CC(=O)N1CCN(c2nccnc2Nc2ncc(C(F)(F)F)cn2)CC1` [Example 41, 1-(4-(3-((5-(trifluoromethyl)pyrimidin-2-yl)amino)pyrazin-2-yl)piperazin-1-yl)prop-2-en-1-one] were 0.198 µM, 23 nM and greater than 20000 nM.
The corresponding values for `C=CC(=O)NCC1CCCN(c2nccnc2Nc2ccc(C(F)(F)F)cc2)C1` (stereo not drawn) [Example 10, N-((1-(3-((4-(trifluoromethyl)phenyl)amino)pyrazin-2-yl)piperidin-3-yl)methyl)acrylamide] are greater than 14 µM, 11400 nM and 10000 nM.
For the molecule `C=CC(=O)N1CCC(Nc2nccnc2Nc2ccc(C(F)(F)F)cc2)C1` (stereo not drawn) [Example 8, 1-(3-((3-((4-(trifluoromethyl)phenyl)amino)pyrazin-2-yl)amino)pyrrolidin-1-yl)prop-2-en-1-one], the IC50 in the test on NCI-H226 cells is 8.48 µM; in test [1] it was 49.3 nM; with IMR32 cells, greater than 5000 nM.
For `C=CC(=O)N1CCN(c2nccnc2OC2CCC(F)(F)CC2)CC1` [Example 93, 1-(4-{3-[(4,4-difluorocyclohexyl)oxy]pyrazin-2-yl}piperazin-1-yl) prop-2-en-1-one], the half-inhibitory concentration (IC50) in the test on NCI-H226 cells is 0.078 µM; in test [1] it was 7 nM; with IMR32 cells, greater than 20000 nM.
The corresponding values for `C=CC(=O)N1CCN(c2ncccc2Nc2ccc(C(F)(F)F)cc2)CC1` [Example 134, 1-[4-(3-{[4-(trifluoromethyl)phenyl]amino}pyridin-2-yl)piperazin-1-yl]prop-2-en-1-one] are 0.023 µM, 2.24 nM and greater than 10000 nM.
Turning to `C=CC(=O)N1CCN(c2nccnc2Nc2cccc(C(F)(F)F)c2)CC1` [Example 30, 1-(4-(3-((3-(trifluoromethyl)phenyl)amino)pyrazin-2-yl)piperazin-1-yl)prop-2-en-1-one], the IC50 in the test on NCI-H226 cells was greater than 1 µM; in test [1], 19.9 nM; in the test with IMR32 cells, greater than 10000 nM.
Taken in the same sequence, the figures for `C=CC(=O)N1CCN(c2nccnc2Nc2ccc(C(F)(F)F)cc2)C[C@@H]1CC#N` [Example 22, (S)-2-(1-acryloyl-4-(3-((4-(trifluoromethyl)phenyl)amino)pyrazin-2-yl)piperazin-2-yl)acetonitrile] were 0.27 µM, 25.9 nM and 15000 nM.
Consider `O=C(C1CO1)N1CCN(c2nccnc2Nc2ccc(C(F)(F)F)cc2)CC1` (stereo not drawn) [Example 172, oxiran-2-yl(4-(3-((4-(trifluoromethyl)phenyl)amino)pyrazin-2-yl)piperazin-1-yl)methanone], for which the 50% inhibitory concentration (IC50) turned out to be 1.4 µM in the test on NCI-H226 cells, 3.2 nM in test [1] and 10000 nM in the test with IMR32 cells.

One may read the IC50 as the midpoint of a concentration-inhibition curve. A low value points to higher potency.
